# Several values for one entry are separate records, joined by “and”; a condition that tells them apart may be missing. Equal values may be shown once. Entries after “also recorded” stand apart in the source; their conditions may differ.
# Key:
# [1] = system: Au565 cells; test: Acylcarnitines (byproducts of mitochondrial fatty acid oxidation) by MS/MS in treated Au565 cells; assay type: cell-based; details: Au565 cell pellet, GW2974 25 μM, 2 days
# Text: (§1) In addition, tyrosine kinase inhibitors can be used to reduce fat in cells, particularly cells that are otherwise normal or that lack protein tyrosine kinase activity mediated disease. To this end at least a portion of a mammal or tissue can be treated with a kinase inhibitor such that the amount of lipid in the cells is reduced. Any suitable kinase inhibitor can be used. Methods for determining suitable inhibitors are well known. For example, samples of adipocytes can be grown in the presence and absence of a kinase inhibitor and stained with Oil red 0 by known methods to determine whether the kinase inhibitor causes a reduction in stored fat. Those kinase inhibitors that cause an observable reduction in fat storage are suitable for the present invention. Exemplary kinase inhibitors that are suitable for the invention include erbB inhibitors, especially including GW2974, GW572016, and the like. […] Au565 cells were grown under normal conditions known in the art and treated for 2 days with GW2974 (25 μM). The cells were collected, washed and sonicated in water (2,000,000 cells in 200 μL of water). The cells were spun down and were tested for acylcamitines (byproducts of mitochondrial fatty acid oxidation) by MS/MS for intraceullar metabolites.
# [2] = system: Au565 cells; test: Microarray mRNA expression profile of Au565 cells treated with GW2974; assay type: cell-based, human; details: GW2974 25 μM vs untreated
# Experimental: Au565 cells were grown under normal conditions and were untreated or treated with GW2974 (25 μM). Cells were pelleted, snap frozen in liquid nitrogen and subjected to microarray analysis. RNA was isolated using the Agilent Total RNA Isolation Kit. Cy3 and Cy5 labeled cRNA was prepared using the Agilent Low RNA Input Fluorescent Linear Amplification Kit. Labeled cRNAs were hybridized to a G4110A Human 1A(V2) microarray consisting of 60-mer oligonucleotides representing over 18K well-characterized, full length, human genes.
# [3] = system: Au565 cells; test: Oil red lipid staining of Au565 cells; assay type: cell-based; details: FIG. 2 and FIG. 3
# [4] = system: primary human cardiac myocytes; test: Lipid staining of cardiomyocytes; assay type: cell-based; details: FIG. 4
# Text: FIG. 4 are photographs of primary human cardiac myocytes grown under various conditions and stained for lipids.
# FIG. 5 is a bar graph illustrating the percentage of human cardiomyocytes testing positive for lipids under various conditions.
# [5] = system: normal fat cells grown in culture; test: Lipid stored in cultured fat cells (Oil red O staining); assay type: cell-based; details: normal fat cells (adipocytes) grown in culture, also cardiac cells
# Text: Such studies can be conducted using Oil red 0 staining for lipids.
# as §1, with “To” for “In addition, tyrosine kinase inhibitors can be used to reduce fat in cells, particularly cells that are otherwise normal or that lack protein tyrosine kinase activity mediated disease. To”, “Those kinase inhibitors that cause an observable reduction in fat storage are suitable for the present invention.” left out
# [6] = system: MDA-MB-468 breast cancer cells; test: Intracellular calcium detected by Fluoro-4; assay type: cell-based; details: MDA-MB-468 cells, Fluoro-4, FIG. 6
# Text: FIG. 6 are photographs of MDA-MB-468 cells treated by GW-2974 and intracellular Ca detected by Fluoro-4.
# (§2) This can be seen in MDA-MB-468 breast cancer cells where calcium is detected by fluorescently by Fluoro-4. This redistribution of calcium results in the activation and phosphorylation of AMPK. Activated AMPK represses translation by phosphorylation of the translation factor eEF-2 (FIG. 7), which inactivates eEF-2 and represses protein synthesis, a known effect of TKIs.
# [7] = system: Au565 cells; test: Western blot for p-eEF-2; assay type: cell-based; details: FIG. 7A
# Text: FIG. 7A a photograph of a Western Blot showing the affect of certain tyrosine kinase inhibitors on expression p-eEF2 and p-AMPKα.
# as §2
# [8] = system: Au565 cells; test: p-eEF-2 expression by IHC; assay type: cell-based; details: FIG. 7B
# Text: FIG. 7B is a photograph of stained cells showing the expression of p-eEF2 in Au565 cells in the presence of various compounds.
# [9] = system: cardiomyocytes cells; test: ERRα and MCAD in cardiomyocytes treated with kinase inhibitors; assay type: cell-based; details: FIG. 8
# Text: FIG. 8 is a photograph of ERRα and MCAD in cardiomyocytes cells with and without treatment by various kinase inhibitors.
# ERRα plays a role in lipid metabolism in cardiac cells, and MCAD is an enzyme that breaks down lipids and fatty acids. Mutations in MCAD is a common genetic disorder, especially in those of northern European descent.
# [10] = system: HER2-expressing human cardiomyocytes; test: AMPK activation, ATP production and TNFα-induced apoptosis in cardiomyocytes; assay type: cell-based
smiles,measurement,setting,value
CN(C)c1cc2c(Nc3ccc4c(cnn4Cc4ccccc4)c3)ncnc2cn1 [GW2974],Acylcarnitines C2,[1],258.88 pmoles of protein
same,Acylcarnitines C16,[1],0.83 pmoles of protein
same,Acylcarnitines C18:1,[1],4.1 pmoles of protein
same,ACAT2: GW2974 change compared to control,[2],−5.3
same,AKAP5: GW2974 change compared to control,[2],−7.3x
same,AVIL: GW2974 change compared to control,[2],4.2x
same,BBOX1: GW2974 change compared to control,[2],5.1
same,CAMK4: GW2974 change compared to control,[2],4.5x
same,CASK: GW2974 change compared to control,[2],−4.2x
same,CCR2: GW2974 change compared to control,[2],−5.0x
same,CD38: GW2974 change compared to control,[2],−4.4x
same,CLCA1: GW2974 change compared to control,[2],−6.7x
same,CLSP: GW2974 change compared to control,[2],−4.0x
same,CYP2C8: GW2974 change compared to control,[2],4.5x
same,ELOVL2: GW2974 change compared to control,[2],−4.4x
same,FABP1: GW2974 change compared to control,[2],−7.2
same,FASN: GW2974 change compared to control,[2],−4.3x
same,FKSG14: GW2974 change compared to control,[2],−4.6x
same,FLJ12476: GW2974 change compared to control,[2],5.0x
same,FREQ: GW2974 change compared to control,[2],−5.3x
same,GLS: GW2974 change compared to control,[2],5.1
same,GNB5: GW2974 change compared to control,[2],−4.1x
same,GSTT2: GW2974 change compared to control,[2],−5.3
same,HPCAL1: GW2974 change compared to control,[2],−4.5x
same,HSPA8: GW2974 change compared to control,[2],−4.2x
same,LDLR: GW2974 change compared to control,[2],−5.2x
same,NRXN3: GW2974 change compared to control,[2],4.58x and 4.6x
same,PFKL: GW2974 change compared to control,[2],−4.7
same,PRKG1: GW2974 change compared to control,[2],6.5x and 6.51x
same,SAT: GW2974 change compared to control,[2],4.4
same,SCN1A: GW2974 change compared to control,[2],4.1x
same,SOAT1: GW2974 change compared to control,[2],−4.0x
same,STK33: GW2974 change compared to control,[2],−5.3x
same,TGFβ1: GW2974 change compared to control,[2],5.31x
same,S100A9: GW2974 change compared to control,[2]; Table IV A,−5.5x
same,S100A9: GW2974 change compared to control,[2]; Table IV C,−5.4
same,lipids in Au565 cells (oil red staining),[3],reduced
same,lipids in cardiomyocyte cells compared with untreated cells,[4],not decrease
same,lipid stored within fat cells,[5],rapidly disappears; also recorded: lose lipid
same,intracellular calcium distribution,[6],redistribution of intracellular calcium
same,p-eEF-2 by western blot,[7],dramatically increased
same,p-eEF-2 expression by IHC,[8],do
same,MCAD expression,[9],completely absent
same,AMPK activation,[10],can activate AMPK
same,ATP production,[10],increases ATP production
same,cardiomyocyte apoptosis / cell death induced by TNFα,[10]; TNFα,protecting against apoptosis induced by TNFα
CS(=O)(=O)CCNCc1ccc(-c2ccc3ncnc(Nc4ccc(OCc5cccc(F)c5)c(Cl)c4)c3c2)o1 [lapatinib],lipid stored within fat cells,[5],loss of fat
same,lipid stored within fat cells,[5]; listed as GW572016,rapidly disappears
COc1cc2ncnc(Nc3ccc(F)c(Cl)c3)c2cc1OCCCN1CCOCC1 [Iressa],p-eEF-2 expression by IHC,[8],do
